From patent US12497365B2, “4-pyridinyl formamide compound or derivative thereof, preparation method therefor, herbicidal composition and use thereof” (Qingdao Kingagroot Chemical Compound Co., Ltd., priority 2019, dated 2025)

What was measured:
Assay in all cases: Weeding effect in post-emergence stage
Type in all cases: in vivo
Settings in all cases: active ingredient 2000 g/ha, 3 weeks after application, fresh weight control rate
Chenopodium album = system: Chenopodium album
Summary of the method: (§1)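 Post-emergence spray, 2-3 leaf stage; acetone/Tween 80 formulation + methyl oleate EC synergist (1.5 liter/ha); 125-2000 g/ha via spray tower. Greenhouse, 3 wk. Read-out: fresh weight growth control rate, graded by activity level.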

Abutilon theophrasti = system: Abutilon theophrasti
Summary of the method: as §1

Descurainia sophia = system: Descurainia sophia
Summary of the method: as §1

[1] = system: Amaranthus retroflexus L.
Summary of the method: as §1

Structure (SMILES)	Weeding effect, activity level (growth control rate), Chenopodium album (Chenopodium album)	Weeding effect, activity level (growth control rate), Abutilon theophrasti (Abutilon theophrasti)	Weeding effect, activity level (growth control rate), Descurainia sophia (Descurainia sophia)	Weeding effect, activity level (growth control rate), Amaranthus retroflexus L. [1]
COc1ccc(Cl)c(-c2nccc(C(=O)Nc3nnnn3C)c2Cl)c1 [Compound 1-103]	5 (Level 5: growth control rate is above 85%)	5 (Level 5: growth control rate is above 85%)	5 (Level 5: growth control rate is above 85%)	5 (Level 5: growth control rate is above 85%)
COc1ccc(-c2nccc(C(=O)Nc3nnnn3C)c2Cl)c(C)c1 [Compound 1-104]	5 (Level 5: growth control rate is above 85%)	5 (Level 5: growth control rate is above 85%)	5 (Level 5: growth control rate is above 85%)	5 (Level 5: growth control rate is above 85%)
COc1ccc(-c2nccc(C(=O)Nc3nnnn3C)c2Cl)c(OC)c1 [Compound 1-105]	5 (Level 5: growth control rate is above 85%)	5 (Level 5: growth control rate is above 85%)	5 (Level 5: growth control rate is above 85%)	5 (Level 5: growth control rate is above 85%)
Cn1nnnc1NC(=O)c1ccnc(-c2ccc(OCc3ccccc3)cc2F)c1Cl [Compound 1-106]	5 (Level 5: growth control rate is above 85%)	5 (Level 5: growth control rate is above 85%)	5 (Level 5: growth control rate is above 85%)	5 (Level 5: growth control rate is above 85%)
Cn1nnnc1NC(=O)c1ccnc(-c2ccc(Oc3ccccc3)c(Cl)c2)c1Cl [Compound 1-107]	5 (Level 5: growth control rate is above 85%)	5 (Level 5: growth control rate is above 85%)	5 (Level 5: growth control rate is above 85%)	5 (Level 5: growth control rate is above 85%)
Cn1nnnc1NC(=O)c1ccnc(-c2cc(-c3ccccc3)cc(-c3ccccc3)c2)c1Cl [Compound 1-108]	5 (Level 5: growth control rate is above 85%)	5 (Level 5: growth control rate is above 85%)	5 (Level 5: growth control rate is above 85%)	5 (Level 5: growth control rate is above 85%)
Cn1nnnc1NC(=O)c1ccnc(-c2cc(F)c(F)c(F)c2)c1Cl [Compound 1-109]	5 (Level 5: growth control rate is above 85%)	5 (Level 5: growth control rate is above 85%)	5 (Level 5: growth control rate is above 85%)	5 (Level 5: growth control rate is above 85%)
COc1c(Cl)ccc(-c2nccc(C(=O)Nc3nnnn3C)c2Cl)c1F [Compound 1-110]	5 (Level 5: growth control rate is above 85%)	5 (Level 5: growth control rate is above 85%)	5 (Level 5: growth control rate is above 85%)	5 (Level 5: growth control rate is above 85%)
Cn1nnnc1NC(=O)c1ccnc(-c2cccc3ccccc23)c1Cl [Compound 1-111]	5 (Level 5: growth control rate is above 85%)	5 (Level 5: growth control rate is above 85%)	5 (Level 5: growth control rate is above 85%)	5 (Level 5: growth control rate is above 85%)
Cn1nnnc1NC(=O)c1ccnc(-c2ccc3ccccc3c2)c1Cl [Compound 1-112]	5 (Level 5: growth control rate is above 85%)	5 (Level 5: growth control rate is above 85%)	5 (Level 5: growth control rate is above 85%)	5 (Level 5: growth control rate is above 85%)
Cn1nnnc1NC(=O)c1ccnc(-c2ccc(F)c3ccccc23)c1Cl [Compound 1-113]	5 (Level 5: growth control rate is above 85%)	5 (Level 5: growth control rate is above 85%)	5 (Level 5: growth control rate is above 85%)	5 (Level 5: growth control rate is above 85%)
Cn1nnnc1NC(=O)c1ccnc(-c2cccc3cnccc23)c1Cl [Compound 1-114]	5 (Level 5: growth control rate is above 85%)	5 (Level 5: growth control rate is above 85%)	5 (Level 5: growth control rate is above 85%)	5 (Level 5: growth control rate is above 85%)
Cn1nnnc1NC(=O)c1ccnc(-c2cc3ccccc3c3ccccc23)c1Cl [Compound 1-115]	5 (Level 5: growth control rate is above 85%)	5 (Level 5: growth control rate is above 85%)	5 (Level 5: growth control rate is above 85%)	5 (Level 5: growth control rate is above 85%)
Cn1nnnc1NC(=O)c1ccnc(-c2cccc3c2oc2ccccc23)c1Cl [Compound 1-116]	5 (Level 5: growth control rate is above 85%)	5 (Level 5: growth control rate is above 85%)	5 (Level 5: growth control rate is above 85%)	5 (Level 5: growth control rate is above 85%)
Cn1nnnc1NC(=O)c1ccnc(-c2ccc3c(c2)oc2ccccc23)c1Cl [Compound 1-117]	5 (Level 5: growth control rate is above 85%)	5 (Level 5: growth control rate is above 85%)	5 (Level 5: growth control rate is above 85%)	5 (Level 5: growth control rate is above 85%)
Cn1nnnc1NC(=O)c1ccnc(-c2ccc3c(c2)sc2ccccc23)c1Cl [Compound 1-118]	5 (Level 5: growth control rate is above 85%)	5 (Level 5: growth control rate is above 85%)	5 (Level 5: growth control rate is above 85%)	5 (Level 5: growth control rate is above 85%)
Cn1nnnc1NC(=O)c1ccnc(-c2ccccn2)c1Cl [Compound 1-119]	5 (Level 5: growth control rate is above 85%)	5 (Level 5: growth control rate is above 85%)	5 (Level 5: growth control rate is above 85%)	5 (Level 5: growth control rate is above 85%)
Cn1nnnc1NC(=O)c1ccnc(-c2cccc(C#N)n2)c1Cl [Compound 1-120]	5 (Level 5: growth control rate is above 85%)	5 (Level 5: growth control rate is above 85%)	5 (Level 5: growth control rate is above 85%)	5 (Level 5: growth control rate is above 85%)
Cn1nnnc1NC(=O)c1ccnc(-c2ccc(C#N)cn2)c1Cl [Compound 1-121]	5 (Level 5: growth control rate is above 85%)	5 (Level 5: growth control rate is above 85%)	5 (Level 5: growth control rate is above 85%)	5 (Level 5: growth control rate is above 85%)
Cn1nnnc1NC(=O)c1ccnc(-c2cc(C#N)ccn2)c1Cl [Compound 1-122]	5 (Level 5: growth control rate is above 85%)	5 (Level 5: growth control rate is above 85%)	5 (Level 5: growth control rate is above 85%)	5 (Level 5: growth control rate is above 85%)
Cn1nnnc1NC(=O)c1ccnc(-c2ccc(F)cn2)c1Cl [Compound 1-123]	5 (Level 5: growth control rate is above 85%)	5 (Level 5: growth control rate is above 85%)	5 (Level 5: growth control rate is above 85%)	5 (Level 5: growth control rate is above 85%)
